Results taken from article PMC9977294, “A parasitic fungus employs mutated eIF4A to survive on rocaglate-synthesizing Aglaia plants” (eLife, 2023).
“And” between values parts separate entries of the source, which are not always exact repeats. Identical values can stand only once.

Target: T1, H. sapiens eIF4A1 Phe163Gly (Homo sapiens, UniProt P60842, F163G)
T1 construct: His tag (N); made in house; host or cells: E. coli BL21 Star (DE3)
Assay: Fluorescence polarization assay, FAM-labeled [AG]10 RNA and recombinant eIF4A
Type: binding

[1] = [AG]10, ADP + Pi, RocA 50 µM, protein 0.01 μM
[2] = [AG]10, ADP + Pi, RocA 50 µM, protein 0.05 μM
[3] = [AG]10, ADP + Pi, RocA 50 µM, protein 0.075 μM
[4] = [AG]10, ADP + Pi, RocA 50 µM, protein 0.1 μM
[5] = [AG]10, ADP + Pi, RocA 50 µM, protein 0.5 μM
[6] = [AG]10, ADP + Pi, RocA 50 µM, protein 0.75 μM
[7] = [AG]10, ADP + Pi, RocA 50 µM, protein 1 μM
[8] = [AG]10, ADP + Pi, RocA 50 µM, protein 5 μM
[9] = [AG]10, ADP + Pi, RocA 50 µM, protein 7.5 μM
[10] = [AG]10, ADP + Pi, RocA 50 µM, protein 10 μM
[11] = [AG]10, ADP + Pi, RocA 50 µM, protein 25 μM
[12] = [AG]10, ADP + Pi, RocA 50 µM, protein 50 μM
[13] = [AG]10 RNA, AMP-PNP, RocA, protein concentration 0.01 μM
[14] = [AG]10 RNA, AMP-PNP, RocA, protein concentration 0.05 μM
[15] = [AG]10 RNA, AMP-PNP, RocA, protein concentration 0.075 μM
[16] = [AG]10 RNA, AMP-PNP, RocA, protein concentration 0.1 μM
[17] = [AG]10 RNA, AMP-PNP, RocA, protein concentration 0.5 μM
[18] = [AG]10 RNA, AMP-PNP, RocA, protein concentration 0.75 μM
[19] = [AG]10 RNA, AMP-PNP, RocA, protein concentration 1 μM
[20] = [AG]10 RNA, AMP-PNP, RocA, protein concentration 5 μM
[21] = [AG]10 RNA, AMP-PNP, RocA, protein concentration 7.5 μM
[22] = [AG]10 RNA, AMP-PNP, RocA, protein concentration 10 μM
[23] = [AG]10 RNA, AMP-PNP, RocA, protein concentration 25 μM
[24] = [AG]10 RNA, AMP-PNP, RocA, protein concentration 50 μM

T1 sequence (P60842 whole entry F163G): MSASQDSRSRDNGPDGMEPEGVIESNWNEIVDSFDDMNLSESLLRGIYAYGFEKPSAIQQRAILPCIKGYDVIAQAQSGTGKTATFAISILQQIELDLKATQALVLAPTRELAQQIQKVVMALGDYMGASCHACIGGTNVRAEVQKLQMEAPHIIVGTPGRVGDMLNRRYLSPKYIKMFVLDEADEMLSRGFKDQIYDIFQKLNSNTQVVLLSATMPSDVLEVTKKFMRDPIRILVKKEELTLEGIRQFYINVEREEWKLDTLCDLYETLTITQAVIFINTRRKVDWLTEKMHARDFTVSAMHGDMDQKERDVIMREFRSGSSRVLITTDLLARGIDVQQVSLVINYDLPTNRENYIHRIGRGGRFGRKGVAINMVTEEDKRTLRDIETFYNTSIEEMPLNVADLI

COc1ccc([C@@]23Oc4cc(OC)cc(OC)c4[C@]2(O)[C@H](O)[C@H](C(=O)N(C)C)[C@H]3c2ccccc2)cc1 [RocA, rocaglamide A]
fluorescence polarization, Mean [1]: 0.04918 | fluorescence polarization, replicates [1]: 0.1421 and 0.05191 and -0.04645 | fluorescence polarization, Mean [2]: 0.02732 | fluorescence polarization, replicates [2]: 0.2322 and -0.03005 and -0.1202 | fluorescence polarization, Mean [3]: -0.02459 | fluorescence polarization, replicates [3]: 0.06011 and -0.02186 and -0.112 | fluorescence polarization, Mean [4]: -0.01913 | fluorescence polarization, replicates [4]: -0.03005 and -0.01366 (2×) | fluorescence polarization, Mean [5]: -0.02459 | fluorescence polarization, replicates [5]: 0.0765 and 0.04372 and -0.194 | fluorescence polarization, Mean [6]: -0.02459 | fluorescence polarization, replicates [6]: 0.1831 and -0.05465 and -0.2022 | fluorescence polarization, Mean [7]: -0.01913 | fluorescence polarization, replicates [7]: 0.1093 and -0.06284 and -0.1038 | fluorescence polarization, Mean [8]: 0.224 | fluorescence polarization, replicates [8]: 0.3634 and 0.224 and 0.0847 | fluorescence polarization, Mean [9]: 0.1721 | fluorescence polarization, replicates [9]: 0.3798 and 0.03552 and 0.1011 | fluorescence polarization, Mean [10]: 0.276 | fluorescence polarization, replicates [10]: 0.3962 and 0.1585 and 0.2732 | fluorescence polarization, Mean [11]: 0.5137 | fluorescence polarization, replicates [11]: 0.7404 and 0.5273 and 0.2732 | fluorescence polarization, Mean [12]: 0.582 | fluorescence polarization, replicates [12]: 0.7568 and 0.5437 and 0.4454 | Fluorescence polarization, Replicate 1-3 [13]: 0.04918 and -0.08197 and -0.1475 | fluorescence polarization, Mean [13]: -0.06011 | Fluorescence polarization, Replicate 1-3 [14]: 0.1311 and -0.09016 and -0.09836 | fluorescence polarization, Mean [14]: -0.01913 | Fluorescence polarization, Replicate 1-3 [15]: -0.04098 and -0.1393 and -0.09836 | fluorescence polarization, Mean [15]: -0.0929 | Fluorescence polarization, Replicate 1-3 [16]: 0.07377 and 0.02459 and -0.06557 | fluorescence polarization, Mean [16]: 0.01093 | Fluorescence polarization, Replicate 1-3 [17]: 0.5984 and 0.4918 and 0.4016 | fluorescence polarization, Mean [17]: 0.4973 | Fluorescence polarization, Replicate 1-3 [18]: 0.4508 and 0.2049 and 0.1148 | fluorescence polarization, Mean [18]: 0.2568 | Fluorescence polarization, Replicate 1-3 [19]: 0.5082 and 0.3689 (2×) | fluorescence polarization, Mean [19]: 0.4153 | Fluorescence polarization, Replicate 1-3 [20]: 0.7131 and 0.7705 and 0.7541 | fluorescence polarization, Mean [20]: 0.7459 | Fluorescence polarization, Replicate 1-3 [21]: 0.6393 and 0.6721 and 0.5902 | fluorescence polarization, Mean [21]: 0.6339 | Fluorescence polarization, Replicate 1-3 [22]: 0.7951 and 0.7459 and 0.7705 | fluorescence polarization, Mean [22]: 0.7705 | Fluorescence polarization, Replicate 1-3 [23]: 0.7623 and 0.7213 and 0.6639 | fluorescence polarization, Mean [23]: 0.7158 | Fluorescence polarization, Replicate 1-3 [24]: 0.9016 and 0.7623 and 0.7787 | fluorescence polarization, Mean [24]: 0.8142
